Results from patent US20120321656A1, “OLIGOPEPTIDES AND THEIR USE FOR TREATING INFECTIOUS DISEASES” (priority 2011, published 2012).

Tested on: BALB/c female mouse
Assay: Immune response to individual peptide: mouse immunization, then indirect solid-phase immunoenzymatic assay (ELISA) of serum antibodies to peptide
Assay type: in vivo
Settings: BALB/c mice, i.p. 100 μg peptide+Str-HRP with Freund's adjuvant; for Immunogenicity group: serum day 38, ELISA; for Overall ranking of antigenicity / Antigenicity compared to best ranking peptide (Average value calculated by removing outlier which exceeded 1 SD value) / Antigenicity compared to best ranking peptide (Median value): serum day 38, ELISA A450; for Antigenicity compared to best ranking peptide (Average value calculated by removing outlier which exceeded 1 SD value): average without outliers >1 SD

Row | Substance | Immunogenicity group | Overall ranking of antigenicity | Antigenicity compared to best ranking peptide (Average value calculated by removing outlier which exceeded 1 SD value) | Antigenicity compared to best ranking peptide (Median value)
1 | A-G-R-R-C-L-D-A-G (AGRRCLDAG; Mycobacterium Tuberculosis Synthetic Peptide) [SEQ ID 11, oligopeptide from MT Cytotoxin/Hemolysin] | intermediate immunogenicity | 6 | 16.5 | 34.2
2 | G-D-N-I-P-A-K-F-L-E-G-T-L-R-T (GDNIPAKFLEGTLRT; Mycobacterium Tuberculosis Synthetic Peptide) [SEQ ID 7, oligopeptide from MT Antigen 85 (Ag 85)] | intermediate immunogenicity | 7 | 11.6 | 73.5
3 | L-R-A-Q-D-D-Y-N-G-W-D-I (LRAQDDYNGWDI; Mycobacterium Tuberculosis Synthetic Peptide) [SEQ ID 4, oligopeptide from MT Antigen 85 (Ag 85)] | relatively strong immunogenicity | 2 | 1.4 | 1.0
4 | N-E-L-G-A-S-Q-A-I-D-L-L-K-G-V (NELGASQAIDLLKGV; Mycobacterium Tuberculosis Synthetic Peptide) [SEQ ID 9, oligopeptide from MT Exported Repetitive Protein (Erp)] | intermediate immunogenicity | 5 | 16.1 | 22.3
5 | S-D-P-A-W-K-R-N-D-P-M-V-Q-I-P-R-L (SDPAWKRNDPMVQIPRL; Mycobacterium Tuberculosis Synthetic Peptide) [SEQ ID 6, oligopeptide from MT Antigen 85 (Ag 85)] | relatively strong immunogenicity | 1 | 1.0 | 1.1
6 | S-M-G-R-D-I-K-V-Q-F-Q-G (SMGRDIKVQFQG; Mycobacterium Tuberculosis Synthetic Peptide) [SEQ ID 3, oligopeptide from MT Antigen 85 (Ag 85)] | intermediate immunogenicity | 11 | 26.5 | 35.8
7 | S-R-Y-N-E-L-V-E-R-G-E-A [SEQ ID 2] | intermediate immunogenicity | 4 | 10.6 | 15.0
8 | T-D-S-E-R-A-W-V-S-R-G-A (TDSERAWVSRGA; Mycobacterium Tuberculosis Synthetic Peptide) [SEQ ID 10, oligopeptide from MT Cytotoxin/Hemolysin] | intermediate immunogenicity | 10 | 27.6 | 24.5
9 | T-D-T-R-S-R-V-E-E-S-R-A-R-L [SEQ ID 1] | intermediate immunogenicity | 8 | 44.5 | 38.1
10 | T-Y-K-W-E-T-F-L-T-R-E-M-P-A (TYKWETFLTREMPA; Mycobacterium Tuberculosis Synthetic Peptide) [SEQ ID 5, oligopeptide from MT Antigen 85 (Ag 85)] | intermediate immunogenicity | 9 | 21.8 | 47.4
11 | V-Y-E-S-T-E-T-T-E-R-P-E-H-H-E-F-K-Q-A (VYESTETTERPEHHEFKQA; Mycobacterium Tuberculosis Synthetic Peptide) [SEQ ID 8, oligopeptide from MT Exported Repetitive Protein (Erp)] | relatively strong immunogenicity | 3 | 4.6 | 4.5
